The values below are quoted from earlier work in US20240268416A1, “ANIMAL FEED ADDITIVE COMPOSITIONS AND METHODS OF USE” (PMI Nutrition, LLC, priority 2023, published 2024).

For the data set, the system named is C. elegans. The settings on record: C. elegans assay.

With urolithins, the “concentration needed to obtain a positive effect on muscle function” value was 50 µM and the “concentration required to trigger the muscle function response” value is 11.4 µg/mL.
